According to patent publication US20260234173A1, “STRUCTURED MOLECULAR VECTORS FOR ANTI-INFLAMMATORY COMPOUNDS AND USES THEREOF” (Universite Claude Bernard Lyon 1, priority 2019, published 2026):

Experiments:
[1] = test system: hippocampal LTP in healthy rats; assay: Hippocampal LTP in slices from healthy rats treated in vivo; design: species or system rat; details: 2 mg/kg i.p. each day during 7 days (P21-P27)
Method: At P28-38, Sprague-Dawley rats were anesthetized with isoflurane, the forebrain was removed and placed in ice cold standard artificial cerebrospinal fluid (ACSF), consisting of (in mM): 124 NaCl, 5 KCl, 1.25 Na2HPO4, 2 MgSO4, 2 CaCl2), 26 NaHCO3, supplemented with 10 D-glucose, and bubbled with 95% O2 and 5% CO2. Hippocampal transverse slices were cut into 350 μm thick sections, using a vibratome (Leica VT1000S), and incubated in ACSF at room temperature for at least 1 h, before the transfer to the recording chamber. The ACSF used for perfusion was supplemented with picrotoxin (100 μM; Sigma-Aldrich), to block GABA-A receptors and therefore to facilitate the induction of NMDA receptors-dependent Long-Term Potentiation (LTP). […] Series resistance was continually monitored, and experiments were discarded if it changed by >20%.
Capillary glass pipettes filled with ACSF and connected to an Iso-Flex stimulus isolation unit (A.M.P.I.) were placed in stratum radiatum, to evoke excitatory postsynaptic potentials (EPSPs) in CA1 pyramidal neurons. […] LTP was induced by the theta burst pairing (TBP) protocol, which consisted of EPSPs paired with single back-propagating action potentials (b-APs), timed so that the b-AP (~15 ms delay) occurred at the peak of the EPSPs, as measured in the soma. […]

[2] = test system: LPS-induced neuroinflammation (hippocampus and neocortex); assay: LPS-induced neuroinflammation in vivo in rats (RT-qPCR, Neuroinflammation Index); design: species or system rat; details: 6 h post-LPS
[3] = test system: epileptic rats (post Pilo-SE); assay: Morris water maze (MWM) spatial learning in epileptic rats; type: in vivo, rat; details: epileptic rats injected during the first week post-SE, tested 5 weeks post-SE, versus saline
Method: All injected solutions were prepared in sterile saline (0.9% w/v). At weaning (postnatal day 20 (P20)), Sprague-Dawley male rat pups were first injected i.p. with lithium chloride (127 mg/Kg; Sigma-Aldrich), to decrease the dose of pilocarpine needed to trigger Status Epilepticus (SE). Scopolamine methylnitrate (1 mg/Kg; Sigma-Aldrich) was injected s.c. 18 h later, to alleviate peripheral cholinergic adverse side effects. Pilocarpine hydrochloride (25 mg/Kg; Sigma-Aldrich) was injected i.p. 30 min later, to induce SE. After 30 min of continuous behavioral SE, diazepam (Valium®, Roche) was injected i.p. at 10 mg/Kg, to promote survival and initiate cessation of behavioral seizures, that completely stopped after a second s.c. injection of diazepam, given 90 min later at the dose of 5 mg/Kg. The rats were placed on a heated pad, under continuous observation, until they recovered from sedation. Following recovery, the rats were returned to the nursing mother until P23. Control rats only received saline injections. […]
Spatial learning ability was measured at 5 weeks post-SE by the Morris water maze (MWM). […]
The statistical analyses were performed using SigmaPlot software version 12. […] For MWM test, data were analyzed by two-way repeated measures ANOVA followed by Fisher LSD post hoc tests to compare differences between groups at several time points.

[4] = Recovery of weight loss in rats after status epilepticus; type: in vivo, rat; details: 10 mg/Kg i.p. every day for 7 days after Pilo-SE
Method: Rats were subjected to pilocarpine-induced status epilepticus at day 0) and were administered (10 mg/Kg, i.p) Synaptamide phosphonate (SynPn) every day for 7 days. The weight of animals was daily measured. Results are described in FIG. 20. Results are expressed as the percentage of weight of animals (10-15 animals/group) at day 0. Statistical differences between Controls/SE+NaCl (*: p<0.05, ***: p<0.001) and between SE+NaCl/SE+SynPn (#: p<0.05).

[5] = test system: CA1 pyramidal neurons in hippocampal slices from rats subjected to Pilo-SE; assay: Hippocampal LTP in slices from Pilo-SE rats, compound perfused in the bath (ex vivo); type: cell-based, rat; details: slices 1-2 weeks post Pilo-SE
Method: In this experiment we used male Sprague-Dawley rats (ENVIGO, Netherlands). Pups were received at 14 day-old (postnatal day 14 (P14)) with their foster mother, and were maintained in groups of 10 in plastic cages (405 mm×255 mm×197 mm) with free access to food and water. All animal procedures are in accordance with the guidelines of the Animal Care and Use Committee of the University Claude Bernard Lyon 1.
All injected solutions were prepared in sterile saline (0.9% w/v). At weaning (postnatal day 20 (P20)), Sprague-Dawley male rat pups were first injected i.p. with lithium chloride (127 mg/Kg; Sigma-Aldrich), to decrease the dose of pilocarpine needed to trigger Status Epilepticus (SE). Scopolamine methylnitrate (1 mg/Kg; Sigma-Aldrich) was injected s.c. 18 h later, to alleviate peripheral cholinergic adverse side effects. Pilocarpine hydrochloride (25 mg/Kg; Sigma-Aldrich) was injected i.p. 30 min later, to induce SE. […] The rats were placed on a heated pad, under continuous observation, until they recovered from sedation. Following recovery, the rats were returned to the nursing mother until P23. Control rats only received saline injections. All rats were then housed in groups of 10 and weighed daily, during the 5 following days, to control for food intake, and then twice weekly until the end of experiment (three weeks post SE).
At P28-38, Sprague-Dawley rats were anesthetized with isoflurane, the forebrain was removed and placed in ice cold standard artificial cerebrospinal fluid (ACSF), consisting of (in mM): 124 NaCl, 5 KCl, 1.25 Na2HPO4, 2 MgSO4, 2 CaCl2), 26 NaHCO3, supplemented with 10 D-glucose, and bubbled with 95% O2 and 5% CO2. Hippocampal transverse slices were cut into 350 μm thick sections, using a vibratome (Leica VT1000S), and incubated in ACSF at room temperature for at least 1 h, before the transfer to the recording chamber. The ACSF used for perfusion was supplemented with picrotoxin (100 μM; Sigma-Aldrich), to block GABA-A receptors and therefore to facilitate the induction of NMDA receptors-dependent Long-Term Potentiation (LTP). CA1 pyramidal cells were visualized with a Zeiss Axioskop 2, equipped with a X40 objective, using infrared video microscopy and differential interference contrast optics. Whole-cell recordings from pyramidal neurons in the CA1 layer were obtained with patch electrodes, which were filled with a solution containing (in mM): 120 potassium gluconate, 20 KCl, 0.2 EGTA, 2 MgCl2, 10 HEPES, 4 Na2ATP, 0.3 Tris-GTP and 14 mM phosphocreatine (pH 7.3, adjusted with KOH). Drugs were applied in the bath of the hippocampal slices. Electrode resistances ranged from 3-5 MΩ. Series resistance was continually monitored, and experiments were discarded if it changed by >20%.
Capillary glass pipettes filled with ACSF and connected to an Iso-Flex stimulus isolation unit (A.M.P.I.) were placed in stratum radiatum, to evoke excitatory postsynaptic potentials (EPSPs) in CA1 pyramidal neurons. Cells were held at −70 mV to record EPSPs, and the stimulation strength was set to evoke EPSPs between 5-8 mV. LTP was induced by the theta burst pairing (TBP) protocol, which consisted of EPSPs paired with single back-propagating action potentials (b-APs), timed so that the b-AP (~15 ms delay) occurred at the peak of the EPSPs, as measured in the soma. A single burst contained five pairs delivered at 100 Hz and ten bursts were delivered at 5 Hz per sweep. Three sweeps were delivered at 10 s intervals for a total of 30 bursts (150 b-AP-EPSP pairs). […]

**Q.** With `CCC=CCC=CCC=CCC=CCC=CCC=CCCC(=O)NCCP(=O)(O)O` [synaptamide phosphonate] as the compound, how does the “LTP magnitude (EPSP amplitude, % of baseline)” value [1] read?
**A.** 212.11±12.9%

**Q.** And the “LPS-mediated induction of transcripts encoding neuroinflammatory markers” value ([2]; 2 mg/Kg synaptamide equivalent i.p. one minute after LPS 1 mg/Kg, 21-day-old rats)?
**A.** partially prevent

**Q.** What about the “reduction of the Neuroinflammatory Index measured both in the hippocampus and the neocortex” value ([2]; 2 mg/Kg synaptamide equivalent i.p. one minute after LPS) of the same compound?
**A.** ~ 70%

**Q.** And the “spatial learning in MWM (latency to find the platform)” value [3]?
**A.** increased average latency to find the platform

**Q.** What about the “recovery of weight loss after SE” value [4] of the same compound?
**A.** facilitates the recovery of weight loss

**Q.** And the “LTP magnitude (EPSP amplitude, % of baseline)” value ([5]; bath application 100 nM)?
**A.** 132.2±5.01%

**Q.** What about the “LTP magnitude (EPSP amplitude, % of baseline)” value ([5]; bath application 400 nM) of the same compound?
**A.** 159.9±10.7%
